{"source": "patent US11274283B2", "about": "(priority 2014, dated 2022)", "key": {"[1]": {"tested_on": "Ralstonia solanacearum tyrosinase", "format": "biochemical", "details": "up to 400 mM"}, "mushroom tyrosinase [2]": {"tested_on": "mushroom tyrosinase", "details": "at 5 mM; scientific literature; cited from earlier work"}, "mushroom tyrosinase [3]": {"tested_on": "mushroom tyrosinase", "test": "Inhibition of mushroom tyrosinase", "format": "biochemical", "details": "cannot complete the reaction"}}}
{"smiles": "O=C1O[C@H]([C@@H](O)CO)C([O-])=C1O.[Na+]", "note": "[ascorbic acid sodium salt]", "values": [{"measurement": "inhibition of Ralstonia solanacearum tyrosinase activity", "setting": "[1]", "result": "No inhibition"}]}
{"smiles": "O=C1O[C@H]([C@@H](O)CO)C(O)=C1O", "note": "[ascorbic acid]", "values": [{"measurement": "inhibition of mushroom tyrosinase", "setting": "mushroom tyrosinase [2]", "result": "inhibition"}]}
{"smiles": "OCCc1ccc(O)cc1", "note": "[tyrosol, 4-(2-hydroxyethyl)phenol]", "values": [{"measurement": "tyrosol concentration above which commercial mushroom tyrosinase is inhibited", "setting": "mushroom tyrosinase [3]", "result": "above 10 g/l"}]}
